Measurements from patent US10196701B2, “Hepatitis B virus capsid assembly” (The Penn State Research Foundation, priority 2015, dated 2019).

Experiments:
[1] = system: HBc (HBV capsid assembly); assay: In vitro capsid assembly in RRL, agarose gel electrophoresis; format: biochemical, Hepatitis B virus
Procedure: (§1) The TNT Coupled Rabbit Reticulocyte Lysate (RRL) in vitro translation system (Promega) was used to express the HBc proteins as recommended by the manufacturer's protocol. In vitro translated proteins were labeled by ^35S methionine. The translation reaction mix contained ca. 125 mM KCI and 2.5 mM Mg^++ (Promega).
(§2) Unless specifically indicated otherwise, the general assembly reactions included 1 to 3 microL of translation products per 10 microL final reaction volume in 1× buffer 3 (100 mM NaCl, 50 mM Tris-HCl, 10 mM MgCl2, 1 mM DTT, pH 7.9; New England Biolabs) supplemented with 1×EDTA-free protease inhibitor cocktail (Roche) and 0.8 U/μl RNasin Plus RNase Inhibitor (Promega). The reactions were incubated for 16 hrs at 37° C. unless indicated otherwise. Where indicated, additional enzymatic manipulations were performed using the same reaction buffer as above. (1) Exogenous phosphatase treatment. One unit of calf intestinal alkaline phosphatase (CIAP; New England Biolabs) per microliter of the final reaction volume was added at the end of translation and incubated for 16 hours at 37° C. (2) Kinase inhibitor treatment. […] The final concentration of DMSO in all reactions was 1% (i.e., kinase inhibitor stocks were always diluted 100-fold into the translation or assembly reactions). (3) Phosphatase inhibitor treatment. A cocktail of non-specific phosphatase inhibitors (10 mM NaF, 50 mM β-glycerophosphate, 10 mM sodium pyrophosphate, and 2 mM sodium orthovanadate; all final concentrations) were added at the end of the translation and incubated for 16 hours at 37° C. Alternatively, okadaic acid (Sigma) was added at the end of the translation at the indicated concentrations and incubated for 16 hours at 37° C. (4) RNase A digestion. RNase A (100 μg/ml final concentration) was added at the end of the translation and incubated for 16 hour at 37° C., or added at the end of the 16 hr assembly reaction and incubated for another one hr.
(§3) ^35S-labeled translation reactions were resolved by 1% agarose gel electrophoresis (100 V for ˜3 hours), using 6×DNA Loading Buffer Blue (New England Biolabs). The gels were then soaked in 10×SSC (1.5 M NaCl, 150 mM sodium citrate, pH 7.0) for approximately 30 minutes and transferred overnight to nitrocellulose membrane by capillary transfer. The next day the membranes were UV cross-linked and dried in a vacuum oven for 2 hours. The translation products were analyzed by autoradiography and Western blotting with the rabbit polyclonal anti-HBcAg (Dako) or mouse monoclonal anti-woodchuck hepatitis virus core protein (Ning X, et al. (2011) PLoS pathogens 7: e1002255).

HBc CTD = assay: Mobility of unassembled HBc on agarose gel (CTD phosphorylation state) and HBc protein levels in RRL; format: biochemical, Hepatitis B virus; details: for mobility upshift on the agarose gel of WT HBc: kinase inhibitors added at beginning of translation, ERKI 310 μM, Bisindo 40 μM; for mobility upshift on the agarose gel of WT HBc / C149 mobility on the agarose gel: Rosc 250 μM; for C149 mobility on the agarose gel: kinase inhibitors
Procedure: as §1, §2, §3
^35S-labeled translation reactions were resolved by SDS-PAGE on 15% or 12.5% polyacrylamide gels. The resolved proteins were transferred to PVDF membrane and detected by autoradiography or Western blotting as above.

PP1 = details: cellular serine/threonine phosphatase PP1; Cohen P, et al. (1990); cited from earlier work
PP2A = details: cellular serine/threonine phosphatase PP2A; Cohen P, et al. (1990); cited from earlier work
[2] = kinase inhibitors, Rosc 250 μM, CDK2I 250 μM
[3] = phosphatase inhibitor added during assembly incubation, OA 50 nM
[4] = RNase pretreatment before assembly
[5] = RNase treatment before assembly
[6] = CIAP treatment following translation

For `COc1ccc(CNc2nc(N(CCO)CCO)nc3c2ncn3C(C)C)cc1` [CDK2 inhibitor, CDK2 inhibitor III], the 7E assembly [1, 2] was “little effect”, the “levels of the WT and mutant HBc proteins” value (HBc CTD; SDS-PAGE, CDK2I 250 μM) was “increase” and the “mobility upshift on the agarose gel of WT HBc” value (“mobility upshift … of WT HBc” below) (HBc CTD; CDK2I 250 μM) was “induced a mobility upshift”. The “C149 mobility on the agarose gel” value (HBc CTD; CDK2I 250 μM) was “no effect”.

With `Nc1[nH]nc2nnc(-c3c(-c4ccccc4)nn4ccccc34)cc12` [ERK inhibitor, Erk inhibitor II] the “mobility upshift … of WT HBc” value (HBc CTD; CDK2I 250 μM) was “no effect”.

With `CN(C)CCCn1cc(C2=C(c3c[nH]c4ccccc34)C(=O)NC2=O)c2ccccc21` [PKC inhibitor, Bisindolymaleimide I] the “mobility upshift … of WT HBc” value (HBc CTD; CDK2I 250 μM) was “no effect”.

In the case of `C=C1[C@@H](O)[C@@H]2O[C@]3(CC[C@H](/C=C/[C@@H](C)[C@@H]4CC(C)=C[C@@]5(O[C@H](C[C@@](C)(O)C(=O)O)CC[C@H]5O)O4)O3)CC[C@H]2O[C@@H]1[C@@H](O)C[C@H](C)[C@H]1O[C@@]2(CCCCO2)CC[C@H]1C` [OA, okadaic acid], the “capsid assembly by 3A” value [1, 3] is reported as “not inhibited”, the “capsid assembly by 3E” value [1, 3] is reported as “prevented assembly” and the “mobility upshift of the WT HBc on the agarose gel” value (HBc CTD; phosphatase inhibitor added during overnight 37° C. incubation following translation, OA 50 nM) is reported as “completely blocked”. For the same molecule, the “OA concentration that could significantly affect the dephosphorylation-induced mobility upshift of the WT HBc” value (HBc CTD; titration of OA, overnight incubation at 37° C.) was 4 nM, the IC50 (PP1) was 15 to 20 nM and the IC50 (PP2A) was about 0.1 nM.

For `CC[C@H](CO)Nc1nc(NCc2ccccc2)c2ncn(C(C)C)c2n1` [roscovitine, Roscovitine], the 7E assembly [1, 2] was “little effect” and the “C149 mobility on the agarose gel” value (HBc CTD; CDK2I 250 μM) was “no effect”.

B1: RNase: RNase A, 100 μg/ml final concentration (protein, UniProt P61823 27-150, looked up)
Ribonuclease pancreatic: KETAAAKFERQHMDSSTSAASSSNYCNQMMKSRNLTKDRCKPVNTFVHESLADVQAVCSQKNVACKNGQTNCYQSYSTMSITDCRETGSSKYPNCAYKTTQANKHIIVACEGNPYVPVHFDASV
For B1, the “assembly of the 3A mutant” value [1, 4] was “no effect”, the “assembly of the 3E mutant” value [1, 4] was “prevented assembly” and the “WT HBc capsid assembly” value ([1]; RNase treatment before CIAP treatment, RNase A 100 μg/ml) was “prevented capsid assembly”. For the same molecule, the 7A assembly [1, 5] was “abolished”, the 7E assembly [1, 5] was “no effect” and the “assembled capsids (WT and mutants)” value ([1]; RNase treatment following the completion of capsid assembly) was “little effect”.

B2: CIAP: calf intestinal alkaline phosphatase, exogenous phosphatase (New England Biolabs) (protein, UniProt P19111 20-506, looked up)
Intestinal-type alkaline …: LVPVEEEDPAFWNRQAAQALDVAKKLQPIQTAAKNVILFLGDGMGVPTVTATRILKGQMNGKLGPETPLAMDQFPYVALSKTYNVDRQVPDSAGTATAYLCGVKGNYRTIGVSAAARYNQCKTTRGNEVTSVMNRAKKAGKSVGVVTTTRVQHASPAGAYAHTVNRNWYSDADLPADAQMNGCQDIAAQLVNNMDIDVILGGGRKYMFPVGTPDPEYPDDASVNGVRKRKQNLVQAWQAKHQGAQYVWNRTALLQAADDSSVTHLMGLFEPADMKYNVQQDHTKDPTLQEMTEVALRVVSRNPRGFYLFVEGGRIDHGHHDDKAYMALTEAGMFDNAIAKANELTSELDTLILVTADHSHVFSFGGYTLRGTSIFGLAPSKALDSKSYTSILYGNGPGYALGGGSRPDVNDSTSEDPSYQQQAAVPQASETHGGEDVAVFARGPQAHLVHGVEEETFVAHIMAFAGCVEPYTDCNLPAPTTATSIPD
In the case of B2, the “assembly of the WT HBc” value ([1]; CIAP 1 unit per microliter, 16 hours at 37° C. following translation) is reported as “induced the assembly”, the “assembly of the 3A mutant” value [1, 6] is reported as “did not have a significant effect” and the “assembly of the 3E mutant” value [1, 6] is reported as “did not have a significant effect”. The “mobility of the C149 truncation mutant” value (HBc CTD; [6]) was “did not affect the mobility”.
